Test results taken from PubChem BioAssay (NCI).
Several values for one entry are separate records, joined by “and”; a condition that tells them apart may be missing. Equal entries are not always repeated.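 96-well plates; 48 h exposure; 5 concentrations. Endpoints by linear interpolation between flanking doses. Not reached: highest tested concentration assigned. GI50 = concentration required for 50% inhibition of growth. TGI: total growth inhibition.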

Test system: MDA-MB-468 breast
Experiment: NCI tumour cell line growth inhibition, 48 h

## COc1ccccc1/C=C/C(=O)c1ccccc1
  GI50: 7230 nM
  TGI: 28000 nM

## COc1ccc(C2=NN(C=O)C(c3cccc(Nc4ccnc5cc(Cl)ccc45)c3)C2)cc1 (centres undefined)
  GI50: 417 nM
  TGI: 3480 nM

## C/C=C1\NC(=O)[C@H]2CSSCCC=C[C@H](CC(=O)N[C@H](C(C)C)C(=O)N2)OC(=O)[C@H](C(C)C)NC1=O
  GI50: < 10 nM
  TGI: < 12.2 nM

## COc1ccc(N2C(=O)[C@H]3CC(C)c4c([nH]c5ccccc45)[C@H]3C2=O)cc1 (some centres undefined)
  GI50: 3630 nM
  TGI: 54100 nM

## Cc1ccc(-c2csc(NC(=O)CN3CCN(c4cc5c(cc4F)c(=O)c(C(=O)O)cn5C4CC4)CC3)n2)cc1
  GI50: 697 nM
  TGI: 6530 nM

## CCCOc1ccc2nc(NC(=O)OC)[nH]c2c1
  GI50: 274 nM
  TGI: > 100000 nM

## Cc1cc(Cl)ccc1Nc1nc(C(F)(F)F)ccc1C(=O)N/N=C/c1ccc([N+](=O)[O-])cc1
  GI50: 1160 nM
  TGI: 5160 nM

## Cc1nc2sccn2c1-c1csc(Nc2cccc(Cl)c2C)n1
  GI50: 1050 nM
  TGI: 11000 nM

## Cc1cc2c(cc1C)N(C(=O)CCl)CCN2C(=O)CCl
  GI50: 199 nM
  TGI: 457 nM

## Cc1sc2nc3c4ccccc4c(NCCCN(C)C)nn3c(=O)c2c1C
  GI50: 1270 nM
  TGI: 2800 nM

## CC[PH+](CC)CC.O=COC1OC([S-])C(OC=O)C(OC=O)C1OC=O.[Au+] (centres undefined)
  GI50: 659 nM
  TGI: 2310 nM

## COc1cc(C(=O)Nc2cc3c(cc2Oc2cc(C)cc(C)c2)C(=O)N(C)[C@@H](CC(=O)N(C)O)C(=O)N3)c(Br)c(OC)c1OC
  GI50: < 3.33 nM
  TGI: < 3.33 nM

## CN1CCN(Cc2ccc(NC(=O)c3cncc(C#Cc4cnc5ccc(NCCO)nn45)c3)cc2C(F)(F)F)CC1
  GI50: 227 nM
  TGI: 1020 nM

## C=C1C(=O)O[C@H]2[C@H]1CC/C(COC(=O)c1cc3cc(Cl)ccc3[nH]1)=C\CC[C@@]1(C)O[C@@H]21
  GI50: 1890 nM
  TGI: 4070 nM

## C=CC(=O)Nc1cc2c(Nc3ccc(F)c(Cl)c3)ncnc2cc1OCCCN1CCOCC1
  GI50: < 10 nM and 2.38 nM
  TGI: 194 nM and 101 nM

## COc1ccc2cc(-c3c(-c4ccncc4)nc(-c4ccc(S(C)(=O)=O)cc4C)n3C)ccc2c1
  GI50: 3020 nM
  TGI: 14500 nM

## Cn1c2c(c3ccc(Cl)c(Cl)c31)C(C#N)C1(CCNCC1)NC2=O (centres undefined)
  GI50: 1630 nM
  TGI: 4290 nM

## CN1C(=O)N(C)C2C1NN=c1s/c(=C\c3ccc(F)cc3)c(=O)n12 (centres undefined)
  GI50: 366 nM
  TGI: 4070 nM

## COc1cc2ncnc(Nc3ccc(F)c(Cl)c3)c2cc1NC(=O)/C=C/CN1CCCCC1
  GI50: < 10 nM
  TGI: 5.38 nM

## COc1ccc(Cn2cc3c(c2)-c2oncc2CC3)cc1
  GI50: 3200 nM
  TGI: > 100000 nM

## Cc1c(C(=O)NCCN2CCOCC2)cn2ncnc(Oc3ccc(NC(=O)Nc4ccc(Cl)c(C(F)(F)F)c4)cc3)c12
  GI50: 1520 nM
  TGI: 3450 nM

## CC1(C)CC[C@]23CC[C@]4(C)[C@H](CC[C@@H]5[C@@]6(C)CC[C@H](N)C(C)(C)[C@@H]6CC[C@]54C)[C@H]2[C@H]1OC3
  GI50: 1700 nM
  TGI: 3250 nM

## NC(=O)c1cc2c3ccccc3ccn2c1-c1ccccc1
  GI50: 273 nM
  TGI: 15200 nM

## COc1ccc(-c2ccc(-c3ccc(C(=N)N)cn3)o2)cc1
  GI50: 2040 nM
  TGI: 5690 nM

## O=C(O)c1ccc2c(c1)CCCC(c1ccc(Cl)cc1Cl)=C2c1ccc(O[C@H]2CCN(CCCF)C2)cc1
  GI50: 12000 nM
  TGI: 26900 nM

## COc1ccc2[nH]c(O)c(C(=Nc3ccc(N(C)C(=O)CN4CCN(C)CC4)cc3)c3ccccc3)c2c1
  GI50: 2600 nM
  TGI: 6130 nM

## COC(=O)C1CCc2sc3ncnc(Nc4cn[nH]c4C(=O)Nc4ccc(CN5CCN(C)CC5)cc4)c3c21 (centres undefined)
  GI50: 1420 nM
  TGI: > 100000 nM

## COc1cc(-c2n/c(=C\c3c(O)[nH]c4ccc(Cl)cc34)cc3c2=Nc2ccccc2-3)ccc1F
  GI50: 1810 nM
  TGI: 3810 nM

## Fc1cc2[nH]ncc2c2c3c(c(-c4cn[nH]c4C(F)(F)F)nc12)C1CCC3C1 (centres undefined)
  GI50: 1100 nM
  TGI: 3980 nM

## COc1cc2c(=O)n(CCN)c3c4cc5c(cc4ccc3c2cc1OC)OCO5
  GI50: 219 nM
  TGI: 881 nM

## CNCCn1c(=O)c2cc(OC)c(OC)cc2c2ccc3cc4c(cc3c21)OCO4
  GI50: 74.3 nM
  TGI: 244 nM

## CCOc1cccc(/C=N/NC(=O)C(=O)Nc2cccc(C(F)(F)F)c2)c1O
  GI50: 2050 nM
  TGI: 15800 nM

## CCn1c(-c2nonc2N)nc2c(C#CC(C)(C)O)nc(OCCNC)cc21
  GI50: 3320 nM
  TGI: 10400 nM

## CCn1c2ccc(O)cc2c2c(C)c3c[n+](C)ccc3c(C)c21
  GI50: 284 nM
  TGI: 2600 nM

## CCOc1cc(/C=N\Nc2nnc(C)n2N)c(C)cc1N(CCCl)CCCl
  GI50: 321 nM
  TGI: 2230 nM

## CCCCCCCCCCCCCCCCCC1=NCCN1C(=O)OCCO
  GI50: 1680 nM
  TGI: 3210 nM

## COc1cc(/C=C2\C(=O)Nc3ccc(N(C)C)cc32)cc(OC)c1OC
  GI50: 3250 nM
  TGI: 27200 nM
